Experimental data published in the supplement of paper PMC11208160.

Assay: recombinant barcode read abundance after kanamycin selection (control-corrected) (log10(CPM+1)); higher = more efficient recombination; sequences stand for … in AGTGCAGAGAAAATCGGCCAGTTTTCTCTGCCTGCAGTCCGCATGCCGT…AGATTTATGCAGCGGACTGCCTTTCTCCCAAAGTGATAAACCGGACAGTATCATGGACCGGTTTTCCCGGTAATCCGTATTTGCAAGGTTGGTTTCACT; site = the 11-nt target
Outline: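 In E. coli, a pooled library matched targets to IS621 bridge RNA target-binding loops and was introduced alongside a donor plasmid. Cells went onto chloramphenicol/ampicillin/kanamycin with 0.1 mM IPTG or onto chloramphenicol/ampicillin LB agar as control, in duplicate. Recombination efficiency, from recombinant-junction barcodes as counts per million, is averaged and control-corrected. It is reported as log10(CPM+1).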
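Further: IS621 recombinase and bridge RNA in Escherichia coli cells.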

Sequence	recombinant barcode read abundance (log10)
TAGTTTCCTTGGGTTCTAACCTGTTGCGT (site TAGTATCCTAC)	0.3
TAGTTTCCTTGGGTTCTAACCTGTTGCGT (site TAGTCTCCTAC)	0.0219
TAGTTTCCTTGGGTTCTAACCTGTTGCGT (site TAGTGTCCTAC)	0.206
TAGTTTCCTTGGGTTCTAACCTGTTGCGT (site TAGTTTCCTAC)	0.875
TAGTTTGCTTGGGTTCTAACCTGTTGCGA (site CGTCGGACTCT)	0.00829
TAGTTTGCTTGGGTTCTAACCTGTTGCGA (site TAGTTTGCTTC)	0.171
TATAATTCTTGGGTTCTAACCTGTTGCTT (site TATAATTCTAA)	0.164
TATAATTCTTGGGTTCTAACCTGTTGCTT (site TTCAATTCTAA)	0.146
TATACAACTTGGGTTCTAACCTGTTGCCT (site TATAAAACTAG)	0.089
TATACAACTTGGGTTCTAACCTGTTGCCT (site TATACAACTAG)	0.112
TATACAACTTGGGTTCTAACCTGTTGCCT (site TATAGAACTAG)	0.0301
TATACAACTTGGGTTCTAACCTGTTGCCT (site TATATAACTAG)	0.0752
TATACAGCTTGGGTTCTAACCTGTTGCCT (site TAAACAGCTAG)	0.156
TATACAGCTTGGGTTCTAACCTGTTGCCT (site TACACAGCTAG)	0.192
TATACAGCTTGGGTTCTAACCTGTTGCCT (site TAGACAGCTAG)	0.0546
TATACAGCTTGGGTTCTAACCTGTTGCCT (site TATACAGCTAG)	0.592
TATACTACTTGGGTTCTAACCTGTTGCCT (site TATACTACTAG)	0.0122
TATACTACTTGGGTTCTAACCTGTTGCCT (site TATACTGCTAG)	0.0258
TATACTACTTGGGTTCTAACCTGTTGCTT (site CACACTACTAA)	0.0534
TATACTACTTGGGTTCTAACCTGTTGCTT (site TATACTACTAA)	0.0375
TATAGGACTTGGGTTCTAACCTGTTGCGT (site GATAGGACTAC)	0.0102
TATAGGACTTGGGTTCTAACCTGTTGCGT (site TATAGGACTAC)	2.03

Sequence	recombinant barcode read abundance (log10)
TATAGTACTTGGGTTCTAACCTGTTGCCT (site TATAGTACTAG)	0.152
TATAGTACTTGGGTTCTAACCTGTTGCCT (site TATTGTCCTAG)	0.0337
TATCCATCTTGGGTTCTAACCTGTTGCCT (site TAACCATCTAG)	0.0695
TATCCATCTTGGGTTCTAACCTGTTGCCT (site TACCCATCTAG)	0.0382
TATCCATCTTGGGTTCTAACCTGTTGCCT (site TAGCCATCTAG)	0.0545
TATCCATCTTGGGTTCTAACCTGTTGCCT (site TATCCATCTAG)	0.618
TATGAGGCTTGGGTTCTAACCTGTTGCCT (site TATGAGGCTAG)	0.433
TATGAGGCTTGGGTTCTAACCTGTTGCCT (site TATGCGGCTAG)	0.26
TATGAGGCTTGGGTTCTAACCTGTTGCCT (site TATGGGGCTAG)	0.0447
TATGAGGCTTGGGTTCTAACCTGTTGCCT (site TATGTGGCTAG)	0.162
TATGGAGCTTGGGTTCTAACCTGTTGCAG (site GTTGGAGCTCT)	1.14
TATGGAGCTTGGGTTCTAACCTGTTGCAG (site TATGGAGCTCT)	2.34
TATGTAGCTTGGGTTCTAACCTGTTGCCC (site TATGTAGCTAG)	0.226
TATGTAGCTTGGGTTCTAACCTGTTGCCC (site TATGTAGCTCG)	0.0813
TATGTAGCTTGGGTTCTAACCTGTTGCCC (site TATGTAGCTGG)	1.36
TATGTAGCTTGGGTTCTAACCTGTTGCCC (site TATGTAGCTTG)	0.239
TATTATACTTGGGTTCTAACCTGTTGCAT (site TATTATACTAA)	0.0319
TATTATACTTGGGTTCTAACCTGTTGCAT (site TATTATACTAC)	0.0379
TATTATACTTGGGTTCTAACCTGTTGCAT (site TATTATACTAG)	0.0602
TATTATACTTGGGTTCTAACCTGTTGCAT (site TATTATACTAT)	0.167
TATTATACTTGGGTTCTAACCTGTTGCGT (site TATTATACTAA)	0.116
TATTATACTTGGGTTCTAACCTGTTGCGT (site TATTATACTAC)	0.335

Sequence	recombinant barcode read abundance (log10)
TATTATACTTGGGTTCTAACCTGTTGCGT (site TATTATACTAG)	0.0727
TATTATACTTGGGTTCTAACCTGTTGCGT (site TATTATACTAT)	0.16
TATTATACTTGGGTTCTAACCTGTTGCTT (site TATTATACTAA)	0.0915
TATTATACTTGGGTTCTAACCTGTTGCTT (site TATTATACTAC)	0.116
TATTATACTTGGGTTCTAACCTGTTGCTT (site TATTATACTAG)	0.245
TATTATACTTGGGTTCTAACCTGTTGCTT (site TATTATACTAT)	0.34
TATTCTACTTGGGTTCTAACCTGTTGCGC (site TATTCTACTAC)	0.0305
TATTCTACTTGGGTTCTAACCTGTTGCGC (site TATTCTACTCC)	0.0687
TATTCTACTTGGGTTCTAACCTGTTGCGC (site TATTCTACTGC)	0.0329
TATTCTACTTGGGTTCTAACCTGTTGCGC (site TATTCTACTTC)	0.0215
TATTGATCTTGGGTTCTAACCTGTTGCCT (site TAATGATCTAG)	0.347
TATTGATCTTGGGTTCTAACCTGTTGCCT (site TACTGATCTAG)	0.162
TATTGATCTTGGGTTCTAACCTGTTGCCT (site TAGTGATCTAG)	0.0784
TATTGATCTTGGGTTCTAACCTGTTGCCT (site TATTGATCTAG)	0.235
TATTGCCCTTGGGTTCTAACCTGTTGCCT (site TAATGCCCTAG)	0.203
TATTGCCCTTGGGTTCTAACCTGTTGCCT (site TATTGCCCTAG)	0.117
TCAAACCCTTGGGTTCTAACCTGTTGCGG (site TCAAACCCTCC)	1.6
TCAAACCCTTGGGTTCTAACCTGTTGCGG (site TCCAACCCTCC)	0.292
TCAAACCCTTGGGTTCTAACCTGTTGCGG (site TCGAACCCTCC)	0.0489
TCAAACCCTTGGGTTCTAACCTGTTGCGG (site TCTAACCCTCC)	0.279
TCAAGACCTTGGGTTCTAACCTGTTGCCG (site TCAAGACCTAG)	0.179
TCAAGACCTTGGGTTCTAACCTGTTGCCG (site TCAAGACCTCG)	0.461

Sequence	recombinant barcode read abundance (log10)
TCACAGGCTTGGGTTCTAACCTGTTGCCG (site TCACAGGCTCG)	0.361
TCACAGGCTTGGGTTCTAACCTGTTGCCG (site TCTCAGGCTCG)	0.377
TCACGGACTTGGGTTCTAACCTGTTGCCT (site TCACGGACTAG)	1.1
TCACGGACTTGGGTTCTAACCTGTTGCCT (site TCCCGGACTAG)	0.101
TCACGGACTTGGGTTCTAACCTGTTGCCT (site TCGCGGACTAG)	0.0352
TCACGGACTTGGGTTCTAACCTGTTGCCT (site TCTCGGACTAG)	0.101
TCACGTCCTTGGGTTCTAACCTGTTGCGT (site TCACGTCCTAA)	0.0145
TCACGTCCTTGGGTTCTAACCTGTTGCGT (site TCACGTCCTAC)	1.3
TCACGTCCTTGGGTTCTAACCTGTTGCGT (site TCACGTCCTAG)	0.0596
TCACGTCCTTGGGTTCTAACCTGTTGCGT (site TCACGTCCTAT)	0.295
TCACGTCCTTGGGTTCTAACCTGTTGCTT (site TCACGTCCTAA)	0.137
TCACGTCCTTGGGTTCTAACCTGTTGCTT (site TCACGTCCTAC)	0.0167
TCACGTCCTTGGGTTCTAACCTGTTGCTT (site TCACGTCCTAG)	0.262
TCACGTCCTTGGGTTCTAACCTGTTGCTT (site TCACGTCCTAT)	0.145
TCAGAATCTTGGGTTCTAACCTGTTGCCT (site TCAGAATCTAG)	0.667
TCAGAATCTTGGGTTCTAACCTGTTGCCT (site TCAGCATCTAG)	0
TCAGAATCTTGGGTTCTAACCTGTTGCCT (site TCAGGATCTAG)	0.371
TCAGAATCTTGGGTTCTAACCTGTTGCCT (site TCAGTATCTAG)	0.0618
TCAGGGACTTGGGTTCTAACCTGTTGCAG (site TCAGGGACTCT)	2.45
TCAGGGACTTGGGTTCTAACCTGTTGCAG (site TCGGGGACTCG)	0.375
